The text below walks through data of patent US12559492B2, “BRAF degraders” (C4 Therapeutics, Inc., priority 2020, dated 2026).

This experiment addresses BRAF^V600E protein (Homo sapiens, UniProt P15056, V600E). The experiment in a line: HiBiT cellular BRAF V600E degradation assay. Type of experiment: cell-based. As to conditions: 24 h incubation; for DC50: A375.10 cells (HiBiT tag knocked in at N-terminal of BRAF V600E), concentration at which 50% of total cellular BRAF V600E is degraded; for Emax: read-out: HiBit 24 h Emax. A general note: With HiBiT, luminescence reflects the tagged protein that the partner subunit can reach.

The mark [1] stands for this setting: A375.10 cells, Emax = amount of residual protein remaining in the cell after compound treatment.

Chain of BRAF^V600E protein (P15056 whole entry V600E): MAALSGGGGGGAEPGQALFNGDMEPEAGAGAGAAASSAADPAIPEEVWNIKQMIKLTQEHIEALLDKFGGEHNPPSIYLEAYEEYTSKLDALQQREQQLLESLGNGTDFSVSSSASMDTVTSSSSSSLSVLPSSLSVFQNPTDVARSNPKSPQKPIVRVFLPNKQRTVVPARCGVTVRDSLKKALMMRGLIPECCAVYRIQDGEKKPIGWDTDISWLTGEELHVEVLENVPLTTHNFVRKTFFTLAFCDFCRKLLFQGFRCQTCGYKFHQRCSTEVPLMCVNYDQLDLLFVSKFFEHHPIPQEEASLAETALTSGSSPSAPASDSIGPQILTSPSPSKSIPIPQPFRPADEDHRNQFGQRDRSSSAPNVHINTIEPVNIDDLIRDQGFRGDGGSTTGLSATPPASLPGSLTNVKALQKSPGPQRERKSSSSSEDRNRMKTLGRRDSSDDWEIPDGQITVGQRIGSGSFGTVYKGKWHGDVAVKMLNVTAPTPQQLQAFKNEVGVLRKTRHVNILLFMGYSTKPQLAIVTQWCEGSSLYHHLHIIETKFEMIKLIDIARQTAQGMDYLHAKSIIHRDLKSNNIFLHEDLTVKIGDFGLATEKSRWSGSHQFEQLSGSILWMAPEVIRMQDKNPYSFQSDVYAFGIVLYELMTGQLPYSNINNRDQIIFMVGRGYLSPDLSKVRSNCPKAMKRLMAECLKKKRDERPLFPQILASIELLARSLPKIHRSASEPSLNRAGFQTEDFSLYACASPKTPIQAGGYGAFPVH

The term DC50 denotes the concentration at which degradation of the target reaches its halfway point. One may read the Emax as the size of the effect at its maximum, as opposed to the concentration needed. On to `CCN(C)S(=O)(=O)Nc1ccc(F)c(C(=O)c2c[nH]c3ncc(-c4cnc(N5CCC(NC(=O)CN6CCC(c7ccc(NC8CCC(=O)NC8=O)cc7)CC6)CC5)nc4)cc23)c1F` (stereo not shown) [Example A62, 2-[4-[4-[(2,6-Dioxopiperidin-3-yl)amino]phenyl]piperidin-1-yl]-N-[1-[5-[3-[3-[[ethyl(methyl)sulfamoyl]amino]-2,6-difluorobenzoyl]-1H-pyrrolo[2,3-b]pyridin-5-yl]pyrimidin-2-yl]piperidin-4-yl]acetamide;formic acid], for which the DC50 was determined as 8 nM. In addition, under setting [1], the Emax was 18%.

In turn, `CCN(C)S(=O)(=O)Nc1ccc(F)c(C(=O)c2c[nH]c3ncc(-c4ccc(N5CCN(CCC6CCN(c7ccc(NC8CCC(=O)NC8=O)cc7)CC6)C(=O)C5)nc4)cc23)c1F` (stereo not shown) [Example 148, 5-[6-[4-[2-[1-[4-[(2,6-dioxo-3-piperidyl)amino]phenyl]-4-piperidyl]ethyl]-3-oxo-piperazin-1-yl]-3-pyridyl]-3-[3-[[ethyl(methyl)sulfamoyl]amino]-2,6-difluoro-benzoyl]-1H-pyrrolo[2,3-b]pyridine] returned a DC50 of 19.8 nM. In addition, under setting [1], the maximum response (Emax) was 13.9%.

As to `CCN(C)S(=O)(=O)Nc1cccc(C(=O)c2c[nH]c3ncc(-c4cnc(N5CCN(C(=O)CC6(O)CCN(c7ccc(NC8CCC(=O)NC8=O)cn7)CC6)CC5)nc4)cc23)c1F` (stereo not shown) [Example 105, 5-[2-[4-[2-[1-[5-[(2,6-dioxo-3-piperidyl)amino]-2-pyridyl]-4-hydroxy-4-piperidyl]acetyl]piperazin-1-yl]pyrimidin-5-yl]-3-[3-[[ethyl(methyl)sulfamoyl]amino]-2-fluoro-benzoyl]-1H-pyrrolo[2,3-b]pyridine], the DC50 came to 42.2 nM. For the same compound, the Emax under setting [1] turned out to be 36.9%.

Consider `CCN(C)S(=O)(=O)Nc1ccc(F)c(C(=O)c2c[nH]c3ncc(-c4ccc(N5CCN(CCN6CCC(c7ccc(OC8CCC(=O)NC8=O)cc7)CC6)CC5)nc4)cc23)c1F` (stereo not shown) [Example 144, 5-[6-[4-[2-[4-[4-[(2,6-dioxo-3-piperidyl)oxy]phenyl]-1-piperidyl]ethyl]piperazin-1-yl]-3-pyridyl]-3-[3-[[ethyl(methyl)sulfamoyl]amino]-2,6-difluoro-benzoyl]-1H-pyrrolo[2,3-b]pyridine], for which the DC50 was 16.1 nM. Moreover, the maximal effect (Emax) under setting [1] came out at 15.6%.

Take `CCN(C)S(=O)(=O)Nc1ccc(F)c(C(=O)c2c[nH]c3ncc(-c4cnc(N5CCC(n6cc7c(n6)CN(c6ccc(NC8CCC(=O)NC8=O)cc6)CC7)CC5)nc4)cc23)c1F` (stereo not shown) [Example 161, 6-[4-[(2,6-dioxo-3-piperidyl)amino]phenyl]-2-[1-[5-[3-[3-[[ethyl(methyl)sulfamoyl]amino]-2,6-difluoro-benzoyl]-1H-pyrrolo[2,3-b]pyridin-5-yl]pyrimidin-2-yl]-4-piperidyl]-5,7-dihydro-4H-pyrazolo[3,4-c]pyridine]: half-maximal degradation (DC50) was put at 14.6 nM. Moreover, the Emax under setting [1] was found to be 8.46%.

`CCN(C)S(=O)(=O)Nc1ccc(F)c(C(=O)c2c[nH]c3ncc(-c4cnc(N5CCN(C(=O)CN6CCC(c7ccc(N(C)C8CCC(=O)NC8=O)cc7)CC6)CC5)nc4)cc23)c1F` (stereo not shown) [Example A70, 5-[2-[4-[2-[4-[4-[(2,6-Dioxopiperidin-3-yl)-methylamino]phenyl]piperidin-1-yl]acetyl]piperazin-1-yl]pyrimidin-5-yl]-3-[3-[[ethyl(methyl)sulfamoyl]amino]-2,6-difluorobenzoyl]-1H-pyrrolo[2,3-b]pyridine] came in with a 50% degradation concentration (DC50) of 19 nM. Under setting [1], the maximal response (Emax) amounted to 18%.

In turn, `CCN(C)S(=O)(=O)Nc1ccc(F)c(C(=O)c2c[nH]c3ncc(-c4ccc(CN5CCN(C6CCN(C(=O)CN7CCC(c8ccc(NC9CCC(=O)NC9=O)cc8)CC7)CC6)CC5)cc4)cc23)c1F` (stereo not shown) [Example A13, 5-[4-[[4-[1-[2-[4-[4-[(2,6-Dioxopiperidin-3-yl)amino]phenyl]piperidin-1-yl]acetyl]piperidin-4-yl]piperazin-1-yl]methyl]phenyl]-3-[3-[[ethyl(methyl)sulfamoyl]amino]-2,6-difluorobenzoyl]-1H-pyrrolo[2,3-b]pyridine] returned a DC50 of 91 nM. Also, under setting [1], the Emax was 23%.

Compound `CCN(C)S(=O)(=O)Nc1ccc(F)c(C(=O)c2c[nH]c3ncc(-c4cnc(N5CCN(C(=O)CC6CCC(c7ccc(NC8CCC(=O)NC8=O)cc7)CC6)CC5)nc4)cc23)c1F` (single isomer, unassigned) [Example 36, 5-[2-[4-[2-[4-[4-[(2,6-dioxo-3-piperidyl)amino]phenyl]cyclohexyl]acetyl]piperazin-1-yl]pyrimidin-5-yl]-3-[3-[[ethyl(methyl)sulfamoyl]amino]-2,6-difluoro-benzoyl]-1H-pyrrolo[2,3-b]pyridine] displayed a DC50 of 21 nM. The “HiBit 24 h Emax” value under setting [1] is given as 16.12%.

On to `CCN(C)S(=O)(=O)Nc1ccc(F)c(C(=O)c2c[nH]c3ncc(-c4cnc(N5CCN(C(=O)CN6CCC(c7ccc(N[C@@H]8CCC(=O)NC8=O)cc7)CC6)CC5)nc4)cc23)c1F` (single isomer, unassigned) [Example A103], for which the half-maximal degradation concentration (DC50) stood at 4 nM. Moreover, under setting [1], the maximal response (Emax) is 6%.

For `CCN(C)S(=O)(=O)Nc1ccc(F)c(C(=O)c2c[nH]c3ncc(-c4ccc(N5CCN(C(=O)CCCN6CCC(c7ccc(C8CCC(=O)NC8=O)cc7)CC6)CC5)nc4)cc23)c1F` (stereo not shown) [Example A81, 5-[6-[4-[4-[4-[4-(2,6-Dioxopiperidin-3-yl)phenyl]piperidin-1-yl]butanoyl]piperazin-1-yl]pyridin-3-yl]-3-[3-[[ethyl(methyl)sulfamoyl]amino]-2,6-difluorobenzoyl]-1H-pyrrolo[2,3-b]pyridine], it took 49 nM to reach half-maximal degradation (DC50). In addition, the Emax under setting [1] was 13%.

In turn, `CCN(C)S(=O)(=O)Nc1ccc(F)c(C(=O)c2c[nH]c3ncc(-c4ccc(N5CCN(C(=O)CC6(O)CCN(c7ncc(NC8CCC(=O)NC8=O)cc7F)CC6)CC5)cc4)cc23)c1F` (stereo not shown) [Example 90, 5-[4-[4-[2-[1-[5-[(2,6-dioxo-3-piperidyl)amino]-3-fluoro-2-pyridyl]-4-hydroxy-4-piperidyl]acetyl]piperazin-1-yl]phenyl]-3-[3-[[ethyl(methyl)sulfamoyl]amino]-2,6-difluoro-benzoyl]-1H-pyrrolo[2,3-b]pyridine] registered a DC50 of 2.13 nM. For the same compound, the Emax under setting [1] was 7.44%.

With `CCN(C)S(=O)(=O)Nc1ccc(F)c(C(=O)c2c[nH]c3ncc(-c4cnc(N5CCC(NCC(=O)N6CCC(c7ccc(NC8CCC(=O)NC8=O)cn7)CC6)CC5)nc4)cc23)c1F` (stereo not shown) [Example A93, 5-[2-[4-[[2-[4-[5-[(2,6-Dioxopiperidin-3-yl)amino]pyridin-2-yl]piperidin-1-yl]-2-oxoethyl]amino]piperidin-1-yl]pyrimidin-5-yl]-3-[3-[[ethyl(methyl)sulfamoyl]amino]-2,6-difluorobenzoyl]-1H-pyrrolo[2,3-b]pyridine;formic acid], half-maximal degradation (DC50) was put at 16 nM. Moreover, the Emax under setting [1] turned out to be 14%.

Take `CCN(C)S(=O)(=O)Nc1ccc(F)c(C(=O)c2c[nH]c3ncc(-c4ccn(C5CCN(C(=O)CC6(O)CCN(c7ccc(NC8CCC(=O)NC8=O)cc7F)CC6)CC5)c(=O)c4)cc23)c1F` (stereo not shown) [Example 181, 5-[1-[1-[2-[1-[4-[(2,6-dioxo-3-piperidyl)amino]-2-fluoro-phenyl]-4-hydroxy-4-piperidyl]acetyl]-4-piperidyl]-2-oxo-4-pyridyl]-3-[3-[[ethyl(methyl)sulfamoyl]amino]-2,6-difluoro-benzoyl]-1H-pyrrolo[2,3-b]pyridine]: half-maximal degradation (DC50) was put at 11.5 nM. For the same compound, the Emax under setting [1] was 13.5%.

Compound `CCN(C)S(=O)(=O)Nc1ccc(F)c(C(=O)c2c[nH]c3ncc(-c4cnc(N5CCN(C(=O)CC6(O)CCN(c7ccc(N[C@H]8CCC(=O)NC8=O)cc7F)CC6)CC5)nc4)cc23)c1F` (single isomer, unassigned) [Example 166] had a DC50 of 2.82 nM. Further, the maximal response (Emax) under setting [1] was 8.9%.

Take `CCN(C)S(=O)(=O)Nc1ccc(F)c(C(=O)c2c[nH]c3ncc(-c4ccc(CN5CCN(CC(=O)N6CCC(c7ccc(NC8CCC(=O)NC8=O)cc7)CC6)CC5)nc4)cc23)c1F` (stereo not shown) [Example A7, 5-[6-[[4-[2-[4-[4-[(2,6-Dioxopiperidin-3-yl)amino]phenyl]piperidin-1-yl]-2-oxoethyl]piperazin-1-yl]methyl]pyridin-3-yl]-3-[3-[[ethyl(methyl)sulfamoyl]amino]-2,6-difluorobenzoyl]-1H-pyrrolo[2,3-b]pyridine;2,2,2-trifluoroacetic acid]: the DC50 came to 16.8 nM. Also, under setting [1], the Emax amounted to 12.9%.

In the case of `CCN(C)S(=O)(=O)Nc1ccc(F)c(C(=O)c2c[nH]c3ncc(-c4cnc(N5CCN(C(=O)CC6(O)CCN(c7ccc(C8CCC(=O)NC8=O)cc7F)CC6)CC5)c(F)c4)cc23)c1F` (stereo not shown) [Example 205, 5-[6-[4-[2-[1-[4-(2,6-dioxo-3-piperidyl)-2-fluoro-phenyl]-4-hydroxy-4-piperidyl]acetyl]piperazin-1-yl]-5-fluoro-3-pyridyl]-3-[3-[[ethyl(methyl)sulfamoyl]amino]-2,6-difluoro-benzoyl]-1H-pyrrolo[2,3-b]pyridine], half-maximal degradation (DC50) was put at 2.34 nM. Moreover, the maximal response (Emax) under setting [1] was 6.63%.

As to `CCN(C)S(=O)(=O)Nc1ccc(F)c(C(=O)c2c[nH]c3ncc(-c4ccc(N5CCN(C(=O)CC6(O)CCN(c7ccc(NC8CCC(=O)NC8=O)cc7F)CC6)CC5)cc4C)cc23)c1F` (stereo not shown) [Example 189, 5-[4-[4-[2-[1-[4-[(2,6-dioxo-3-piperidyl)amino]-2-fluoro-phenyl]-4-hydroxy-4-piperidyl]acetyl]piperazin-1-yl]-2-methyl-phenyl]-3-[3-[[ethyl(methyl)sulfamoyl]amino]-2,6-difluoro-benzoyl]-1H-pyrrolo[2,3-b]pyridine], it took 58.4 nM to reach half-maximal degradation (DC50). Under setting [1], the Emax was determined as 14.9%.
